Results as given in publication PMC11947619, “Molecular mechanism of Mad2 conformational conversion promoted by the Mad2‐interaction motif of Cdc20” (Protein Science : A Publication of the Protein Society, 2025).
Residues, ends and D or L forms follow the SMILES beside them.

Legend:
Mad2^∆β7/β8 = target: T1, Mad2^∆β7/β8 (Homo sapiens, UniProt Q13257); test: NMR titration (CSP) of Cdc20^MIM-123-152 into Mad2^∆β7/β8; format: binding; conditions: 25°C
T1 construct: a Mad2 variant with a deleted β7/β8 hairpin (Mad2^∆β7/β8: residues 1–165); His6-DoubleStrep-TEV (N); made in house
Procedure: (§1) FIGURE 3 Mad2 conversion rates with different Cdc20^MIM peptides. (a) Schematic of human Cdc20. Box1: Box1 motif; C1: C‐box motif; K1: KEN box motif; MIM: Mad2‐interacting motif, residues 123–137; WD40: WD40 domain, residues 182–480; IR: IR tail. (b) Mad2 conversion in the presence of different Cdc20^MIM peptides. Mad2 conversion was traced at 25°C and the changes in the first 30 min are shown. A black tick indicates where conversion is considered complete. NMR data for O‐Mad2^R133A with Cdc20^MIM‐111‐138 shown for comparison are from Fischer et al. ([2022]). (c) The Cdc20^MIM‐138‐152‐binding site was identified by comparing the spectra of C‐Mad2:Cdc20^MIM‐123‐137 with C‐Mad2:Cdc20^MIM‐123‐152 (boxed in b) and analyzing their CSPs (Figure S8e,f). The Cdc20^MIM‐138‐152‐binding site (blue) is mapped onto the structure of C‐Mad2:Cdc20 from the cryo‐EM structure of the APC/C:MCC complex (PDB 6TLJ) (Alfieri et al., [2016], Alfieri et al., [2020]). The O‐Mad2 structural model is superimposed onto the C‐Mad2 structure for comparison. Cdc20 residues 138–152 are in yellow and residues 126–138 are in green. The β7/β8 hairpin in O‐Mad2 (red) blocks both the binding sites for Cdc20 residues 126–138 and residues 138–152. (d) As in c except the β7/β8 hairpin in O‐Mad2 is removed to expose the Cdc20 binding sites. […] (f) Cdc20^MIM‐123‐152 was titrated into Mad2^∆β7/β8 and its binding was analyzed by NMR. […]

C‐Mad2 = test: NMR chemical shift perturbations of C-Mad2 by Cdc20 residues 138–152; format: binding, human; conditions: inferred from small CSPs, spectra of C-Mad2:Cdc20^MIM-123-152 vs C-Mad2:Cdc20^MIM-123-137, and lack of cryo-EM structural information
Procedure: as §1

| Compound | interaction with Mad2^∆β7/β8, in words (Mad2^∆β7/β8; NMR CSPs on addition of peptide) | Kd (Mad2^∆β7/β8; NMR titration, fit of resonance with largest CSP vs ligand concentration, 20 mM HEPES pH 7.0, 100 mM NaCl, 1 mM TCEP, 5% D2O, read-out: KD (estimated)) | association with C-Mad2, in words (C‐Mad2) |
| --- | --- | --- | --- |
| CC[C@H](C)[C@H](NC(=O)[C@H](CCCCN)NC(=O)[C@H](C)NC(=O)[C@H](CCC(=O)O)NC(=O)[C@H](CCC(=O)O)NC(=O)[C@@H](NC(=O)[C@H](CC(=O)O)NC(=O)[C@@H](N)Cc1ccccc1)C(C)C)C(=O)N[C@@H](CC(C)C)C(=O)N[C@@H](CCCNC(=N)N)C(=O)N[C@@H](CC(C)C)C(=O)N[C@@H](CO)C(=O)NCC(=O)N[C@@H](CCCCN)C(=O)N1CCC[C@H]1C(=O)N[C@@H](CCC(N)=O)C(=O)N[C@@H](CC(N)=O)C(=O)N[C@@H](C)C(=O)N1CCC[C@H]1C(=O)N[C@@H](CCC(=O)O)C(=O)NCC(=O)N[C@@H](Cc1ccc(O)cc1)C(=O)N[C@@H](CCC(N)=O)C(=O)N[C@@H](CC(N)=O)C(=O)N[C@@H](CCCNC(=N)N)C(=O)N[C@@H](CC(C)C)C(=O)N[C@@H](CCCCN)C(=O)N[C@H](C(=O)N[C@@H](CC(C)C)C(=O)N[C@@H](Cc1ccc(O)cc1)C(=O)O)C(C)C [Cdc20^MIM‐123‐152] (H-FDVEEAKILRLSGKPQNAPEGYQNRLKVLY-OH; N-terminus and C-terminus assumed) | weak interaction | > 700 µM |  |
| QNAPEGYQNRLKVLY [Cdc20^MIM‐138‐152, peptide of Cdc20 residues 138–152] |  |  | only weakly associated with C‐Mad2 |
